Data from patent publication US20230087609A1, “USE OF A SOLUBLE GUANYLATE CYCLASE (sGC) STIMULATOR OR OF A COMBINATION OF A sGC STIMULATOR AND AN sGC ACTIVATOR FOR CONDITIONS WHEREIN THE HEME GROUP OF sGC IS OXIDIZED OR WHEREIN sGC IS DEFICIENT IN HEME” (Universiteit Maastricht, priority 2020, published 2023).

Key:
[1] = test system: isolated rat mesenteric arteries; assay: Relaxation of isolated rat mesenteric arteries (myograph)
Source text: The animals were killed humanely via CO2 inhalation (95% CO2, 5% O2) followed by cervical dislocation and exsanguination. The required tissues were dissected and placed in ice-cold oxygenated Krebs' solution (composition in mM: NaCl 119, KCl 4.7, MgSO4 1.17, NaHCO3 25, KH2PO4 1.18, CaCl2 2.5, glucose 5.5, EDTA 0.026, pH 7.4). The collected arteries were carefully freed of fat and connective tissue and cut into 2 mm rings.
The segments were then mounted in a small vessel myograph for the measurement of changes in isometric tension. Two 40 μm stainless steel wires were inserted through the lumen of the segment, one attached to an isometric force transducer and the other to a support driven by a micrometer. The vessels were maintained in Krebs' solution at 37° C. in 7 ml myograph chambers and were continuously bubbled with carbogen (95% O2, 5% CO2). Arteries were allowed to equilibrate for a 30 min period under zero force after which their internal diameter was normalised to an equivalent transmural pressure of 100 mmHg. Changes in isometric tension were reordered using a Myograph Interface Model 610 M version 2.2 (AD Instruments, Pty Ltd) and a chart recorder (Yokogawa, Japan), or using a MacLab® (MacLab® data-acquisition system, AD Instruments Pty Ltd.), interfaced with a Macintosh Computer. Following the 30 min equilibration period at optimal resting tension, the vessels were contracted maximally using a potassium depolarising KPSS solution (composition in mM: KCl 123, MgSO4 1.17, KH2PO4 2.37, CaCl2 2.5, glucose, 5.5 and EDTA 0.026). After the maximum contraction reached a plateau, the vessels were washed thoroughly using Krebs' solution and the tension allowed to return to the baseline. The vessels were then pre-contracted to ≈50% maximum contraction using titrated concentration of the thromboxane A2 mimetic U46619 (0.1-100 nM) and a titrated concentration of the al agonist cirazoline (1-100 nM). Subsequently, cumulative (0.5 log unit) concentration response curve to BAY 58-2667 (1 pM-0.1 μM) were constructed in the presence and absence of 100nM BAY 41-2272 (100 nM). All treatments used in our study including the pre-incubation with 10 μM ODQ for 30 min were added before the 50% pre-contraction with cirazoline and U46619 and only one concentration response curve to any vasodilator was constructed in each segment of the blood vessel. At the completion of each concentration response curve, maximal relaxation was achieved by adding nifedipine 10 μM.
Results are expressed as mean±s.e.m, with n representing the number of samples used from separate subjects. Statistical significance was accepted at the P<0.05 level. Relaxation responses to BAY58-2667 were expressed as a percentage reversal of the level of pre-contraction to U46619, with the response to nifedipine 10 μM defined as 100% relaxation. The individual response curves obtained for each vasodilator were fitted using non-linear regressions (Graphpad Prism®, version 5). In-vitro experiments have been performed with n=3 and n=1. Maximal relaxation values (%) at specific concentrations of the compounds were compared. For multiple comparisons, student's t-test or one-way analysis of variance (ANOVA) was followed by Bonferroni's test. • The results of our experiments are represented by the following non-limiting examples.

[2] = test system: Human Brain Microvascular Endothelial Cells (HBMECs); assay: Cell viability (MTT) of HBMEC subjected to hypoxia; type: cell-based; conditions: 1 μM; 6 h hypoxia, 24 h reperfusion; versus non-treated cells (FIG. 9)
Experimental: HBMEC (Cell systems, USA) between passage 3 and 9 were cultured to approximately 95% confluence using specialized cell medium (EGM-2 MV BulletKit, Lonza, The Netherlands) enriched with 5% fetal bovine serum before starting the hypoxia period. For hypoxia studies, HBMECs were seeded at specific density (6×10^4 cells/ml) in 12 wells-plate and incubated during 24 h at 37° C. Then, cell medium was replaced with non-FBS containing medium following by 6 h of hypoxia (94.8% N2, 0.2% O2 and 5% CO2) at 37° C. using hypoxia workstations (Ruskin Invivo2 400 station, The Netherlands). The hypoxia period was followed by 24 h of reperfusion in the presence or absence of 1 μM BAY 41-2272. Control cells were exposed to normoxia (75% N2, 20% O2 and 5% CO2) and enriched medium during the hypoxia period.
After 24 h of re-oxygenation period, cell viability was assessed using the colorimetric MTT assay. MTT solution (5 mg/ml) was added to each well (100 μl/ml) and incubated for 2 h at 37° C. The formazan salt formed was solubilized by adding 350 μl/well DMSO. The optical density was measured spectrophotometrically at 540 nm using a micro plate reader. Absorbance values obtained in control cells were set to 100% viability.

## Nc1nc(-c2nn(Cc3ccccc3F)c3ncccc23)ncc1C1CC1 [BAY 41-2272, 5-cyclopropyl-2-[1-(2-fluoro-benzyl)-1H-pyrazolo[3,4-b]pyridin-3-yl]-pyrimidin-4-ylamine]
[1]; 0.1 μM BAY 41-2272 alone, pre-contraction with U46619
  relaxation, compound alone: no relaxation
[1]; nano-molar range
  effect on Bay 58-2667 relaxation: augmented
  effect on DEA/NO (NO donor) relaxation: augmented
[2]
  cell viability: significantly increased cell viability
